Experimental data: US20080038809A1, “ISOLATED LECTIN POLYPEPTIDES CONSISTING OF TRUNCATED […] UDP-GalNAc:POLYPEPTIDE N- ACETYLGALACTOSAMINYLTRANSFERASES” (GLYCOZYM APS, priority 2002, published 2008)
Read-outs that look alike come from different tables or passages of the source.

What was measured:
[1] = tested on: T, Tn and sialyl-Tn in HT-29 MTX cells; assay: O-linked mucin carbohydrate structures T, Tn and sialyl-Tn in HT-29 MTX cells by immuno-histochemistry; format: cell-based, human; settings: 5 mM, compared to controls
Excerpt: In order to evaluate GalNAcβ-benzyl as an inhibitor of mucin glycosylation and secretion we used the cultured colon carcinoma cells of mucin secreting phenotypes: HT-29 metotrexate (MTX) cells selected from the HT-29 cell line by culture in the presence of MTX (kind gift from G. Huet, France). The HT-29 MTX cells were selected to yield a goblet cell like phenotype with constitutive production of MUC5AC. In order to ensure proper goblet cell differentiation the HT29MTX cell line were continuously grown up to 21 days in the presence of 5 mM GalNAcα-benzyl, 5 mM GalNAcβ-benzyl, 5 mM GlcNAcα-benzyl and without inhibitor using culture conditions as described in Hennebicq-Reig et al. (Permanent exposure of mucin-secreting HT-29 cells to benzyl-N-acetyl-alpha-D-galactosaminide induces abnormal O-glycosylation of mucins and inhibits constitutive and stimulated MUC5AC secretion. Biochem J. 1998; 334:283-95). […] Furthermore the viscosity of the media from cells with and without inhibitor was evaluated using viscosity micro-measurement.

[2] = tested on: core 1 α2-3sialyltransferase ST3Gal-I; settings: cited from earlier work
[3] = target: human GalNAc-T4 (UDP-GalNAc:polypeptide N-acetylgalactosaminyltransferase T4), secreted soluble enzyme (sT4), wild type (Homo sapiens, UniProt Q8N4A0); settings: read-out: Concentration required for 50% inhibition (IC50), binding to GalNAc-MUC1 glycopeptide
Experimental: (§1) The pH of 1 ml purified protein (0.3 mg/ml) in PBS was adjusted to pH 9 with 1 M NaOH and 40 μl N-hydroxy-succinimidobiotin (Sigma) dissolved in DMF (10 mg/ml) was added. The solution was mixed end-over-end for 2 hours at room temperature, and dialyzed three times against PBS and an equal volume of glycerol was added. The biotinylated proteins were stored at −20° C. in 50% glycerol until use.
(§2) Glycopeptides were purified by C-18 reverse phase HPLC. Peptides were custom synthesized by Neosystems (Strasbourg). Biotinylated Helix Pomatia lectin (HPA) was from KemEnTec (Denmark). Anti-MUC1 HMFG2 monoclonal antibody was a generous gift from Joyce Taylor-Papadimitriou.
(§3) Direct binding ELISA assay was developed as follows: Polystyrene microtiter plates (Maxisorb, Nunc, Denmark) were coated with peptides or enzymatically glycosylated glycopeptides in PBS overnight at 4° C. Plates were washed and blocked with 0.1% Tween20 and 0.2% BSA in PBS for 1 h at room temperature, followed by incubation with biotinylated proteins in PBS with 0.05% Tween20 for 2 h at room temperature. After four washes with PBS, plates were incubated with 1:2,000 dilution streptavidin-HRP (Sigma) in PBS for 30 min at room temperature and washed four times with PBS. […]

[4] = target: human GalNAc-T2 (UDP-GalNAc:polypeptide N-acetylgalactosaminyltransferase T2), secreted soluble enzyme (sT2), wild type (Homo sapiens, UniProt Q10471); assay: biochemical; settings: read-out: Concentration required for 50% inhibition (IC50), binding to GalNAc-MUC1 glycopeptide
Experimental: as §1, §2, §3

[5] = target: human GalNAc-T4 (UDP-GalNAc:polypeptide N-acetylgalactosaminyltransferase T4) isolated truncated lectin domain (T4ld), HIS-tagged, amino acid residues 405-578 o (Homo sapiens, UniProt Q8N4A0); assay: biochemical; format: binding; settings: read-out: Concentration required for 50% inhibition (IC50), binding to GalNAc-MUC1 glycopeptide
Excerpt: (§4) In order to minimize the size and functional complexity of GalNAc-transferase lectins to be used as probes for binding studies, we used multiple sequence alignment analysis to predict and design suitable expression constructs for isolated lectin domains (FIG. 2). In the present invention a direct binding assay was developed using isolated lectin domains of GalNAc-T4 and -T2 with minimal size (FIG. 5). […] The lectin Helix Pomatia (HP) was used as a control plant lectin with known binding specificity for […].
(§5) Direct binding ELISA assay was developed as follows: Polystyrene microtiter plates (Maxisorb, Nunc, Denmark) were coated with peptides or enzymatically glycosylated glycopeptides in PBS overnight at 4° C. Plates were washed and blocked with 0.1% Tween20 and 0.2% BSA in PBS for 1 h at room temperature, followed by incubation with biotinylated proteins in PBS with 0.05% Tween20 for 2 h at room temperature. After four washes with PBS, plates were incubated with 1:2,000 dilution streptavidin-HRP (Sigma) in PBS for 30 min at room temperature and washed four times with PBS. Development was performed with 0.5 mg/ml o-phenylenediamine and 0.02% H2O2 at room temperature for 15 min, and reaction stopped by adding 100 μl/well of 0.5 N H2SO4. Competitive inhibition assays were done at end-point titers of GalNAc-transferase proteins with one hour preincubations with inhibitor.
(§6) In binding studies using lectins without biotinylation antibodies to the HIS-tag and the T7-tag, or in some experiments antibodies raised to GalNAc-T2 and -T4 enzymes were used to detect binding.
(§7) Inhibition experiments were used to further define the binding specificity of GalNAc-T2 and -T4 secreted soluble enzymes as well as lectin domains compared to Helix Pomatia lectin (Table IV).
(§8) The ligand target used in this Example is a GalNAc-MUC1 glycopeptide produced enzymatically from synthetic peptides.

[6] = target: T1, GalNAc-T2 lectin domain (Homo sapiens, UniProt Q10471); assay: Inhibition of GalNAc-T2 lectin domain (T2ld) binding to GalNAc-MUC1 glycopeptide, ELISA
T1 construct: comprises amino acid residues 408-571 of GALNT2; made in house; host or cells: baculovirus (pAcGP67-A), virus made in Sf9, protein produced in High Five insect cells
T1 sequence (Q10471 408-571): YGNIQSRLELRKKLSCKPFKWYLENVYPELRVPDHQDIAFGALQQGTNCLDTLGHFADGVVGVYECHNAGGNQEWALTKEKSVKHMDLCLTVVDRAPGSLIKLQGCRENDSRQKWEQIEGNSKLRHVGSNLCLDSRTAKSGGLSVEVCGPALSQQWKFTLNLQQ
Experimental: as §5, §6, §7

[7] = target: T2, secreted soluble GalNAc-T2 (Homo sapiens, UniProt Q10471); assay: Inhibition of secreted soluble GalNAc-T2 (sT2) binding to GalNAc-MUC1 glycopeptide, ELISA
T2 construct: 6xHis (N); thrombin cleavage site (N); T7 antibody site (N); made in house; host or cells: baculovirus (pAcGP67A), High Five insect cells
Experimental: as §5, §7

[8] = tested on: GalNAc-T2 and -T4 secreted soluble enzymes as well as lectin domains; assay: Inhibition of GalNAc-transferase lectin binding to GalNAc-glycopeptides, statements on GalNAc-T2 and -T4 together; parameters: species or system human; settings: enzymes and isolated lectins
Experimental: as §5
Lectins and antibodies to carbohydrates usually recognize the anomeric configuration of the sugar structures they bind.
as §7

[9] = target: T3, secreted soluble GalNAc-T4 (Homo sapiens, UniProt Q8N4A0); assay: Inhibition of secreted soluble GalNAc-T4 (sT4) binding to GalNAc-MUC1 glycopeptide, ELISA
T3 construct: 6xHis (N); thrombin cleavage site (N); T7 antibody site (N); made in house; host or cells: baculovirus (pAcGP67A), High Five insect cells
Experimental: as §5, §7

[10] = target: T4, GalNAc-T4 lectin domain (Homo sapiens, UniProt Q8N4A0); assay: Inhibition of GalNAc-T4 lectin domain (T4ld) binding to GalNAc-MUC1 glycopeptide, ELISA
T4 construct: comprises amino acid residues 405-578 of GALNT4; made in house; host or cells: baculovirus (pAcGP67-A), virus made in Sf9, protein produced in High Five insect cells
Experimental: as §5, §6, §7

[11] = target: Helix Pomatia lectin (HPA) (Helix pomatia, UniProt Q2F1K8); assay: Inhibition of Helix Pomatia lectin (HPA) binding, ELISA
Experimental: as §2, §5, §7

[12] = target: human GalNAc-T4 (UDP-GalNAc:polypeptide N-acetylgalactosaminyltransferase T4) isolated truncated lectin domain (T4ld), HIS-tagged, amino acid residues 405-578 of GALNT4 (Homo sapiens, UniProt Q8N4A0); assay: biochemical; format: binding; settings: binding to GalNAc-MUC1 glycopeptide
Excerpt: as §4, §5, §6, §7, §8

T2 sequence (Q10471 52-571 limits assumed): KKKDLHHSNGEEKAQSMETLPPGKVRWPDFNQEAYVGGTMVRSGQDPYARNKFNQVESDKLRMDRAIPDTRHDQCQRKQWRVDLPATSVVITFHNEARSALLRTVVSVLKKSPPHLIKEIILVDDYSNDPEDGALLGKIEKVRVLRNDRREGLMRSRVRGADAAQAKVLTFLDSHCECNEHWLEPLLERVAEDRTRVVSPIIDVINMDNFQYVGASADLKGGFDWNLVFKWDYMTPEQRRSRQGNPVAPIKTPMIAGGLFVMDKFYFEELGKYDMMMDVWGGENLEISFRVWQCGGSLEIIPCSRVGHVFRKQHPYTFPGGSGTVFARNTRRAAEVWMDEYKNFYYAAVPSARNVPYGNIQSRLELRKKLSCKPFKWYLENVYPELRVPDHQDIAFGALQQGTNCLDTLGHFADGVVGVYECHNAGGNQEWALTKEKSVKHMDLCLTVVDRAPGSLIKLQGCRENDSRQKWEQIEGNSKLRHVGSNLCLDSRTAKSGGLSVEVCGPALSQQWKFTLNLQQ
Chain of human GalNAc-T4 (UDP-GalNAc:polypeptide N-acetylgalactosaminyltransferase T4) isolated truncated lectin domain (T4ld), HIS-tagged, amino acid residues 405-578 o (Q8N4A0 405-578): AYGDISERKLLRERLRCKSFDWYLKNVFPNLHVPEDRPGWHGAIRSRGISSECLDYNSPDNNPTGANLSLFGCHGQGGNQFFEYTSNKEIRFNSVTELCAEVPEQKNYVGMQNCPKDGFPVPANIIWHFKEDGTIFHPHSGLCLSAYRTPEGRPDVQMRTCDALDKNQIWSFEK
Chain of human GalNAc-T4 (UDP-GalNAc:polypeptide N-acetylgalactosaminyltransferase T4) isolated truncated lectin domain (T4ld), HIS-tagged, amino acid residues 405-578 of GALNT4 (Q8N4A0 405-578): as above
T4 sequence (Q8N4A0 405-578): as above
T3 sequence (Q8N4A0 36-578 limits assumed): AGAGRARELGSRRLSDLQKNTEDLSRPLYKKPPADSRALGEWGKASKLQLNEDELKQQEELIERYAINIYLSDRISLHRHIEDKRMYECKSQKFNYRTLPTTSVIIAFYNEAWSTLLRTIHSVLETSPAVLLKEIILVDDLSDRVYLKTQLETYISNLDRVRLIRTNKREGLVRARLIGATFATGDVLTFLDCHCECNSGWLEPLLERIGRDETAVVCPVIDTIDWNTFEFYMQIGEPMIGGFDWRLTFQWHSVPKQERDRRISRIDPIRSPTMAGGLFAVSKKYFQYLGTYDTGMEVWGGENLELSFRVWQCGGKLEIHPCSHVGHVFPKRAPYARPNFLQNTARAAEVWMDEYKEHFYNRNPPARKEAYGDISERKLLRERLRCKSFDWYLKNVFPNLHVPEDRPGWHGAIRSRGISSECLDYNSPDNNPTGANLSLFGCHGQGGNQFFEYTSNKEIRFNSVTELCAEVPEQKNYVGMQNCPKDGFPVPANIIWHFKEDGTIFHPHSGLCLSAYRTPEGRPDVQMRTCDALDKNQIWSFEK
Chain of human GalNAc-T4 (UDP-GalNAc:polypeptide N-acetylgalactosaminyltransferase T4), secreted soluble enzyme (sT4), wild type (Q8N4A0 36-578 limits assumed): as above
Chain of Helix Pomatia lectin (HPA) (Q2F1K8 entry or part of it): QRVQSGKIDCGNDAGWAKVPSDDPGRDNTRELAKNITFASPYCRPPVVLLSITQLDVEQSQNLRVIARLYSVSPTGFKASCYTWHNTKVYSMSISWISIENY
Chain of human GalNAc-T2 (UDP-GalNAc:polypeptide N-acetylgalactosaminyltransferase T2), secreted soluble enzyme (sT2), wild type (Q10471 52-571 limits assumed): as the sequence (Q10471 52-571 limits assumed) above

In the case of `CC(=O)N[C@H]1[C@H](OCc2ccccc2)O[C@H](CO)[C@@H](O)[C@@H]1O` [BzlβGlcNAc], the “O-linked mucin carbohydrate structures T, Tn and sialyl-Tn” value [1] is reported as “upregulated”.
In the case of `CC(=O)N[C@H]1[C@@H](OCc2ccccc2)O[C@H](CO)[C@H](O)[C@@H]1O[C@@H]1O[C@H](CO)[C@H](O)[C@H](O)[C@H]1O` [Galβ1-3GalNAcα-benzyl], the “substrate for ST3Gal-I” value [2] is given as “efficient substrate”.
Molecule `CC(=O)N[C@H]1[C@@H](Oc2ccccc2)O[C@H](CO)[C@H](O)[C@@H]1O` [PhlαGalNAc] has an IC50 [3] of 1 mM, an IC50 [4] of 5 mM and an IC50 [5] of 5 mM.
With `CC(=O)N[C@H]1[C@@H](OP(=O)(O)OP(=O)(O)OC[C@H]2O[C@@H](n3ccc(=O)[nH]c3=O)[C@H](O)[C@@H]2O)O[C@H](CO)[C@H](O)[C@@H]1O` [UDPαGalNAc, UDP-N-acetylgalactosamine] the IC50 [6] was > 100 mM, the IC50 [7] was 65 mM and the “inhibition of GalNAc-T2 and -T4 lectin mediated binding, in words” value [8] was “not a significant inhibitor”. The IC50 [9] was 30 mM, the IC50 [10] was 50 mM and the “inhibition of Helix Pomatia binding, in words” value [11] was “strong inhibitor”.
For `CC(=O)N[C@H]1[C@H](Oc2ccc([N+](=O)[O-])cc2)O[C@H](CO)[C@H](O)[C@@H]1O` [pNPβGalNAc], the IC50 ([6]; read-out: T2ld: Concentration required for 50% inhibition (IC50)) was > 10 mM, the IC50 ([7]; read-out: sT2: Concentration required for 50% inhibition (IC50)) was > 10 mM and the IC50 [12] was 8 mM.
